The term IC50 denotes the concentration needed to halve the response being measured. Read a low IC50 as higher potency.

Among the data in PMC5343665, “Cytochrome P450s in human immune cells regulate IL-22 and c-Kit via an AHR feedback loop” (Scientific Reports, 2017) are IC50 values, retold here.

Common to all, as to assay type: cell-based
The target of one test is T1, CYP1B1 (Homo sapiens, UniProt Q16678).
T1 sequence (Q16678 1-543): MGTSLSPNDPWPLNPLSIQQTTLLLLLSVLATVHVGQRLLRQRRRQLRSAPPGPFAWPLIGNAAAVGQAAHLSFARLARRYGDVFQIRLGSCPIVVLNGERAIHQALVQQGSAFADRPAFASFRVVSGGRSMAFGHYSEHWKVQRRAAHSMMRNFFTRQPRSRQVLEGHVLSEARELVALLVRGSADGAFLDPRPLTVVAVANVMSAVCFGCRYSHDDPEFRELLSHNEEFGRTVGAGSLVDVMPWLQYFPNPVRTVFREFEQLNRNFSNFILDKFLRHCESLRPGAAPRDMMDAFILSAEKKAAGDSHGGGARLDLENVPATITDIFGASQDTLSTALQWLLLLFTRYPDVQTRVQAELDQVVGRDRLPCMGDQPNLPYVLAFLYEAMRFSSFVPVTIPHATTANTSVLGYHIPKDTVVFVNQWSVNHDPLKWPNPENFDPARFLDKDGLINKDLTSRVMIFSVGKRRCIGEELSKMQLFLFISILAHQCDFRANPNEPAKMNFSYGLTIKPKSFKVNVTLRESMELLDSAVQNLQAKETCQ
Kind of test: EROD (ethoxyresorufin deethylase) assay in V79 cells expressing human CYP1B1.

A further test has as its target T2, CYP1A2 (Homo sapiens, UniProt P05177).
T2 sequence (P05177 2-516): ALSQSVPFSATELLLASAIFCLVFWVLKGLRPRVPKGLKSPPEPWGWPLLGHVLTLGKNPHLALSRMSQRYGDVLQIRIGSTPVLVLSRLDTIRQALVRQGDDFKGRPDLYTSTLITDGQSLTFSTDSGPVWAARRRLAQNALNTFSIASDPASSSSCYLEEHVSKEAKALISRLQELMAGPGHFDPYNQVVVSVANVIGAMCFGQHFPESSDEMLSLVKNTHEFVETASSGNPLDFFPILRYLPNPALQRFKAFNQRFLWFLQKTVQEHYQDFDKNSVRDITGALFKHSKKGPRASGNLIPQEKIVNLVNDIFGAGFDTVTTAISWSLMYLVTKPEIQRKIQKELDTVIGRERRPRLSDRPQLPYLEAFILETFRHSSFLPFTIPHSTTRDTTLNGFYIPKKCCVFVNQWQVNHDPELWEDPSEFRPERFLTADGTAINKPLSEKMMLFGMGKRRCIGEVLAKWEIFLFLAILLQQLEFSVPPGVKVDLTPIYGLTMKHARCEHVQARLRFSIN
Put plainly: EROD (ethoxyresorufin deethylase) assay in V79 cells expressing human CYP1A2.

The next test deals with T3, CYP1A1 (Homo sapiens, UniProt P04798).
T3 sequence (P04798 1-512): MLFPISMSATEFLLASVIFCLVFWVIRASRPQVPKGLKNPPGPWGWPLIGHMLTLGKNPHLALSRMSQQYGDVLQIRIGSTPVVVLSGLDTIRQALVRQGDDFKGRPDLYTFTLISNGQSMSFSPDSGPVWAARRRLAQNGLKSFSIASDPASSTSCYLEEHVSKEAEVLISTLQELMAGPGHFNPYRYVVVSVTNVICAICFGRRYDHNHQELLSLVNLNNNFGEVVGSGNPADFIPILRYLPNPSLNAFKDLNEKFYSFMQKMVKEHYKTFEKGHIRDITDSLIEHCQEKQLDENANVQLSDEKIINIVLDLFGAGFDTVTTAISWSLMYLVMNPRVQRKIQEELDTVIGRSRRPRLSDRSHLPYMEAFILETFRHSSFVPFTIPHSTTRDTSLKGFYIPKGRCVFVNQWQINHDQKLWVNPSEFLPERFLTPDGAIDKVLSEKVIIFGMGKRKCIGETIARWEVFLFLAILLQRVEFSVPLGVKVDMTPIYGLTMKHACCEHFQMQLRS
Put plainly: EROD (ethoxyresorufin deethylase) assay in V79 cells expressing human CYP1A1.

For the compound `CC#Cc1ccc2ccc3cccc4ccc1c2c34` [1-PP, 1-(1-propynyl)-pyrene], the values for the 50% inhibitory concentration (IC50) against CYP1B1, against CYP1A2 and at CYP1A1 were 218 nM, 650 nM and 5 nM, respectively.
